Data reported in PubChem BioAssay (NCI).
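Results reflect a 48-hour exposure of cells in 96-well plates to compound at five concentrations. GI50 = concentration required for 50% inhibition of growth. TGI marks complete inhibition of growth.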

How the values were obtained:
Assay in all cases: NCI anticancer screen, dose series, 48 h
[1] = tested on: HOP-62 NSCLC
[2] = tested on: T-47D breast
[3] = tested on: SK-MEL-2 melanoma
[4] = tested on: HCC-2998 colon
[5] = tested on: U251 CNS
[6] = tested on: CCRF-CEM leukemia
[7] = tested on: EKVX NSCLC
[8] = tested on: TK-10 renal
[9] = tested on: OVCAR-3 ovarian
[10] = tested on: HS 578T breast

Structure (SMILES)	GI50 [1] [µM]	TGI [1] [µM]	GI50 [2] [µM]	TGI [2] [µM]	GI50 [3] [µM]	TGI [3] [µM]	GI50 [4] [µM]	TGI [4] [µM]	GI50 [5] [µM]	TGI [5] [µM]	GI50 [6] [µM]	TGI [6] [µM]	GI50 [7] [µM]	TGI [7] [µM]	TGI [8] [µM]	TGI [9] [µM]	GI50 [9] [µM]	TGI [10] [µM]
CN1CCC2(CC1)ONC1=NCCN12	52.9	> 100	99.8	> 100	> 100	> 100	15.8	43.8	29.4	> 100	13.4	42.3	92.5	> 100	–	–	–	–
O=C(COc1ccc(Cl)cc1)N1N=C(c2ccc(Cl)cc2)CC1(O)c1ccccc1 (configuration not stated)	–	57	–	–	–	80.7	–	> 100	–	38.3	–	> 100	–	91.4	> 78	39.2	–	–
CC1=C(C(=O)Nc2cc(=O)n(C)c(=O)n2C)C(c2ccco2)C(C(=O)Nc2cc(=O)n(C)c(=O)n2C)=C(C)N1	–	> 100	–	–	–	> 100	–	> 100	–	> 100	–	> 100	–	> 100	> 100	> 100	–	–
CCN(CC)c1c(C(=O)/C=C/c2ccc(Cl)cc2)c(-c2ccccc2)nn(C)c1=O	–	4.26	–	–	–	3.62	–	3.24	–	3.18	–	8.82	–	6.87	4	4.35	–	–
Cc1cccc(/C=C/c2c(C(=O)/C=C/c3ccccc3)c(C)nc3ccccc23)c1	1.75	3.48	1.29	3.66	1.77	3.63	1.73	3.49	1.47	2.85	1.33	> 100	1.75	3.26	–	2.81	1.46	–
CC(C)Cn1cnc2c(SCc3ccc(Cl)cc3Cl)nc(N)nc21	–	> 100	–	> 100	–	> 100	–	37.4	–	> 100	–	–	–	> 100	> 100	> 100	–	> 100
O=C(O)C1=C(O)C(C(=O)O)C23CCCCCCCCCCC12C(C(=O)O)C(O)=C3C(=O)O (configuration not stated)	–	–	–	–	–	> 100	–	> 100	–	> 100	–	> 100	–	> 100	> 100	> 100	–	–
O=C(NCCCCNc1cccccc1=O)OCc1ccccc1	–	> 100	–	–	–	> 100	–	> 100	–	> 100	–	> 100	–	> 100	> 100	> 100	–	–
Cc1cc(CC(=O)NCCO)n(CCO)c(=O)c1	–	> 100	–	–	–	–	–	> 100	–	> 100	–	> 100	–	–	> 100	> 100	–	–
C=CCNC(=O)N(CCCCC(NC(C)=O)C(=O)NCc1ccccc1)Cc1ccccc1 (configuration not stated)	–	> 100	–	–	–	> 100	–	–	–	> 100	–	> 100	–	> 100	> 100	> 100	–	–
CCc1ccccc1NC(=O)C1=C(C)NC(C)=C(C(=O)Nc2ccccc2CC)C1c1ccccc1Cl	–	> 100	–	–	–	> 100	–	> 100	–	> 100	–	> 100	–	> 100	> 100	> 100	–	–
COC1=C(N)C(=O)c2nc(C)ccc2C1=O	–	2.94	–	–	–	3.28	–	14.5	–	5.69	–	> 87.7	–	6.85	16.4	3.65	–	–
